From ChEMBL document CHEMBL1132823, “Fatty acid amide hydrolase substrate specificity” (Bioorg Med Chem Lett, 2000)

Each compound was assayed against T1, Fatty-acid amide hydrolase 1 (Rattus norvegicus) (UniProt P97612) (assay: Relative rate of fatty acid amide hydrolase hydrolysis of compound compared to that of oleamide.).
T1 sequence (whole entry): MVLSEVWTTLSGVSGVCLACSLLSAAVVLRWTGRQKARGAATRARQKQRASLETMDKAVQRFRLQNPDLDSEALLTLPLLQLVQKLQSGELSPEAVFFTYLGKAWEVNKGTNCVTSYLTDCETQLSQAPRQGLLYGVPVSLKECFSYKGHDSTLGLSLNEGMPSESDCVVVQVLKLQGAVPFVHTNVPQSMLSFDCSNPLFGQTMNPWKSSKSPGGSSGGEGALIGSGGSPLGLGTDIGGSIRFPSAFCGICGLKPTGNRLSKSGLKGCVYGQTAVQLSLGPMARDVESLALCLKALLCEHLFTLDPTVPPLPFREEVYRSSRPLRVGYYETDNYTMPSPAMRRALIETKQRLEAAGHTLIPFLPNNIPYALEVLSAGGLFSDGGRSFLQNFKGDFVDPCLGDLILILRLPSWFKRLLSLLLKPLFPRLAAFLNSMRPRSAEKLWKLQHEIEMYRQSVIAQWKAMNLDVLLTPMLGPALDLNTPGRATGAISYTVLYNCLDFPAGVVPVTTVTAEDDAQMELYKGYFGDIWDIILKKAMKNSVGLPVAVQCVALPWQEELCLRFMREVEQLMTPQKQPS

Q: CCCCCCCC/C=C/CCCCCCNC(N)=O was tested. Which Relative rate of hydrolysis did it give?
A: Its Relative rate of hydrolysis is under 0.001.

Q: For CCCCC/C=C/C/C=C/CCCCCCCC(N)=O (stereo in doubt; 22), which Relative rate of hydrolysis is on record?
A: The Relative rate of hydrolysis was 0.54.

Q: For CCCCC/C=C/C/C=C/C/C=C/C/C=C/CCCC(N)=O, which Relative rate of hydrolysis is on record?
A: Its Relative rate of hydrolysis is 3.11.

Q: How did the Relative rate of hydrolysis turn out when CC/C=C/C/C=C/C/C=C/C/C=C/C/C=C/C/C=C/CCC(N)=O was run?
A: Its Relative rate of hydrolysis is 0.82.

Q: For CCCC/C=C\CCCCCCCCCCCC(N)=O, which Relative rate of hydrolysis is on record?
A: Its Relative rate of hydrolysis is 0.82.

Q: For CCCCC/C=C/C/C=C/C/C=C/CCCCCCC(N)=O, which Relative rate of hydrolysis is on record?
A: The Relative rate of hydrolysis was 1.38.

Q: How did the Relative rate of hydrolysis turn out when CCCCCCCC/C=C/CCCCCCC(C)(C)C(N)=O was run?
A: Its Relative rate of hydrolysis is 0.03.

Q: CCCCCCCC/C=C\CCCCCCCCCC(N)=O was tested. Which Relative rate of hydrolysis did it give?
A: Its Relative rate of hydrolysis is 1.05.

Q: With CCCCCCCCCCCCCC(N)=O as the compound, how does the Relative rate of hydrolysis read?
A: Its Relative rate of hydrolysis is 0.83.

Q: With CCCCCCCCCCCCCC/C=C\CCCC(N)=O as the compound, how does the Relative rate of hydrolysis read?
A: Its Relative rate of hydrolysis is 1.16.

Q: For CCCCCC/C=C/CCCCCCCC(N)=O, which Relative rate of hydrolysis is on record?
A: The Relative rate of hydrolysis was 0.79.

Q: With CCCCCCCCCC/C=C\CCCCCC(N)=O as the compound, how does the Relative rate of hydrolysis read?
A: The Relative rate of hydrolysis was 1.09.

Q: CCCCC/C=C/C/C=C/CCCCCCCCCC(N)=O was tested. Which Relative rate of hydrolysis did it give?
A: Its Relative rate of hydrolysis is 1.27.

Q: For CCCCCCCC/C=C/CCCCCCC(C)C(N)=O (configuration not stated), which Relative rate of hydrolysis is on record?
A: The Relative rate of hydrolysis was 0.07.

Q: With CCCCCCCC/C=C/CCCCCCCC(N)=O as the compound, how does the Relative rate of hydrolysis read?
A: The Relative rate of hydrolysis was 0.52.

Q: Which Relative rate of hydrolysis does the source give for CCCCC/C=C/C/C=C/CCCCCCCC(N)=O (stereo in doubt; 21) here?
A: The Relative rate of hydrolysis was 1.04.

Q: With CCCCCCCC/C=C\CCCCCCCC(N)=O as the compound, how does the Relative rate of hydrolysis read?
A: The Relative rate of hydrolysis was 1.

Q: For CCCCCCCCCCC/C=C\CCCCC(N)=O, which Relative rate of hydrolysis is on record?
A: Its Relative rate of hydrolysis is 0.91.

Q: For CCCCCC/C=C\CCCCCCCCCCCC(N)=O, which Relative rate of hydrolysis is on record?
A: Its Relative rate of hydrolysis is 1.03.

Q: With CCCCCCCCCCCCCCCCCC(N)=O as the compound, how does the Relative rate of hydrolysis read?
A: The Relative rate of hydrolysis was 0.69.

Q: With CCCCCCCC/C=C/CCCCCCCCCCCCCC(N)=O as the compound, how does the Relative rate of hydrolysis read?
A: Its Relative rate of hydrolysis is 0.82.

Q: CCCC/C=C/CCCCCCCC(N)=O was tested. Which Relative rate of hydrolysis did it give?
A: Its Relative rate of hydrolysis is 0.86.

Q: Which Relative rate of hydrolysis does the source give for CCCCCCCCCCCCCCCC(N)=O here?
A: Its Relative rate of hydrolysis is 0.72.

Q: How did the Relative rate of hydrolysis turn out when CCCCCCCC/C=C/CCCCCCOC(N)=O was run?
A: The Relative rate of hydrolysis was 0.1.

Q: CCCCC/C=C\C/C=C\C/C=C\C/C=C\CCCC(=O)NCCO was tested. Which Relative rate of hydrolysis did it give?
A: Its Relative rate of hydrolysis is 1.68.

Q: How did the Relative rate of hydrolysis turn out when CC/C=C\CCCCCCCCCCCCCC(N)=O was run?
A: The Relative rate of hydrolysis was 0.9.

Q: How did the Relative rate of hydrolysis turn out when CCCCCCCC/C=C/CCCCCCCCCCCC(N)=O was run?
A: Its Relative rate of hydrolysis is 0.83.

Q: With CCCCCCCCCCC/C=C\CCCCCCC(N)=O as the compound, how does the Relative rate of hydrolysis read?
A: Its Relative rate of hydrolysis is 1.12.

Q: How did the Relative rate of hydrolysis turn out when CC/C=C/C/C=C/C/C=C/CCCCCCCCCC(N)=O was run?
A: Its Relative rate of hydrolysis is 1.4.

Q: How did the Relative rate of hydrolysis turn out when CCCCC/C=C\CCCCCCCCCCC(N)=O was run?
A: The Relative rate of hydrolysis was 0.92.

Q: How did the Relative rate of hydrolysis turn out when C1CCCCCCNCCCCC1 was run?
A: Its Relative rate of hydrolysis is 0.74.

Q: Which Relative rate of hydrolysis does the source give for CC/C=C/C/C=C/C/C=C/CCCCCCCC(N)=O here?
A: Its Relative rate of hydrolysis is 1.38.
